# Reference: patent US9630957B2, “2,3-butanediamide epoxide compound and preparation method and use thereof” (Institute of Pharmacology and Toxicology Academy of …, priority 2014, dated 2017)
# Assays:
# [1] = system: enterovirus EV71 (BrCr strain); test: Activity screening for anti-enterovirus EV71: inhibition of cytopathic effect in Vero cells; format: cell-based; details: for IC50: 100TCID50, Vero cells, CPE read when virus control reaches 4+, read-out: IC50 (half inhibitory concentration for enterovirus EV71)
# Experimental: Test item: Activity screening of the compounds for anti-enterovirus EV71
# Test principle: Vero cells are used as viral host. The inhibition of the compound of the invention on the degree of cytopathic effect of Vero cells caused by enterovirus virus EV71 is determined.
# 1. Virus strain: enterovirus EV71 (BrCr, American Type Culture Collection, ATCC)
# (§1) 2. Sample treatment: the compounds of the present invention are dissolved in DMSO or diluent to prepare stock solution which is stored at −20° C. The stock solution is formulated to suitable incipient concentration with culture solution immediately before use, and then 3-fold diluted with the culture solution, 8 degrees of dilution each.
# 3. Positive control drug: Pirodavir (LGM Pharma), which is a broad-spectrum anti-viral inhibitor.
# (§2) 4. Test Method: Vero cells are seeded into a 96-well culture plate, at 5% CO2, and cultured at 37° C. for 16 hours. The Vero cells are added with different dilutions of drugs, and the degree of cytopathic effect (CPE) in each group is observed. The half toxic concentration (TC50) of each sample for Vero cells is calculated. Vero cells are added with 100TCID50 enterovirus EV71 respectively, and the virus solution is discarded after adsorption at 37° C. for 1 hour, and then drugs with various degrees of dilution are added respectively. Virus control and cell control are set and incubated at 37° C. The degree of cytopathic effect (CPE) in each group is observed when the degree of cytopathic effect (CPE) of virus control group reaches 4+. The half inhibitory concentration (IC50) of each sample for enterovirus EV71 are calculated. Selectivity Index (SI) is calculated according to the following equation: SI=TC50/IC50.
# [2] = system: Vero cells; test: Cytotoxicity of the compounds for Vero cells (CPE observation, TC50); format: cell-based; details: no virus
# Experimental: as §1, §2
IC50 [1] [µg/mL],melting point [°C],SMILES,TC50 (half toxic concentration for Vero cells) [2] [µg/mL],SI (Selectivity Index = TC50/IC50) ([1]; Vero cells)
> 0.82,206.3 to 207.1,"O=C(Nc1nc2ccccc2s1)c1ccc(N(Cc2ccc(F)cc2)C(=O)[C@H]2O[C@@H]2C(=O)Nc2cccc(Br)c2)cc1 [Compound 18, (2S,3S)—N^2-(4-(benzo[d]thiazol-2-ylcarbamoyl)phenyl)-N^3-(3-bromophenyl)-N^2-(4-fluorobenzyl)-2,3-epoxybutanediamide]",1.43,
> 0.82,198.7 to 199.5,"O=C(Nc1nc2ccccc2s1)c1ccc(N(Cc2ccc(F)cc2)C(=O)[C@H]2O[C@@H]2C(=O)Nc2ccc(Cl)cc2)cc1 [Compound 19, (2S,3S)—N^2-(4-(benzo[d]thiazol-2-ylcarbamoyl)phenyl)-N^3-(4-chlorophenyl)-N^2-(4-fluorobenzyl)-2,3-epoxybutanediamide]",1.43,
> 2.47,200.1 to 201.2,"COc1ccc(NC(=O)[C@H]2O[C@@H]2C(=O)N(Cc2ccc(F)cc2)c2ccc(C(=O)Nc3nc4ccccc4s3)cc2)cc1 [Compound 20, (2S,3S)—N^2-(4-(benzo[d]thiazol-2-ylcarbamoyl)phenyl)-N^3-(4-methoxyphenyl)-N^2-(4-fluorobenzyl)-2,3-epoxybutanediamide]",13.74,
> 0.27,223.1 to 224.1,"COc1cccc(NC(=O)[C@H]2O[C@@H]2C(=O)N(Cc2ccc(F)cc2)c2ccc(C(=O)Nc3nc4ccccc4s3)cc2)c1 [Compound 21, (2S,3S)—N^2-(4-(benzo[d]thiazol-2-ylcarbamoyl)phenyl)-N^3-(3-methoxyphenyl)-N^2-(4-fluorobenzyl)-2,3-epoxybutanediamide]",1.19,
> 0.27,219.2 to 219.7,"O=C(Nc1nc2ccccc2s1)c1ccc(N(Cc2ccc(F)cc2)C(=O)[C@H]2O[C@@H]2C(=O)Nc2ccc(F)c(F)c2)cc1 [Compound 22, (2S,3S)—N^2-(4-(benzo[d]thiazol-2-ylcarbamoyl)phenyl)-N^3-(3,4-difluorophenyl)-N^2-(4-fluorobenzyl)-2,3-epoxybutanediamide]",1.19,
> 0.82,209.8 to 210.3,"O=C(Nc1nc2ccccc2s1)c1ccc(N(Cc2ccc(F)cc2)C(=O)[C@H]2O[C@@H]2C(=O)Nc2cccc(Cl)c2)cc1 [Compound 23, (2S,3S)—N^2-(4-(benzo[d]thiazol-2-ylcarbamoyl)phenyl)-N^3-(3-chlorophenyl)-N^2-(4-fluorobenzyl)-2,3-epoxybutanediamide]",1.43,
> 0.82,203.5 to 204.2,"O=C(Nc1nc2ccccc2s1)c1ccc(N(Cc2ccc(F)cc2)C(=O)[C@H]2O[C@@H]2C(=O)Nc2ccc([N+](=O)[O-])cc2)cc1 [Compound 24, (2S,3S)—N^2-(4-(benzo[d]thiazol-2-ylcarbamoyl)phenyl)-N^3-(4-nitrophenyl)-N^2-(4-fluorobenzyl)-2,3-epoxybutanediamide]",1.43,
> 0.27,210.2 to 211.1,"O=C(Nc1nc2ccccc2s1)c1ccc(N(Cc2ccc(F)cc2)C(=O)[C@H]2O[C@@H]2C(=O)Nc2cccc(Cl)c2Cl)cc1 [Compound 25, (2S,3S)—N^2-(4-(benzo[d]thiazol-2-ylcarbamoyl)phenyl)-N^3-(2,3-dichlorophenyl)-N^2-(4-fluorobenzyl)-2,3-epoxybutanediamide]",0.82,
> 0.82,206.7 to 207.5,"O=C(Nc1nc2ccccc2s1)c1ccc(N(Cc2ccc(F)cc2)C(=O)[C@H]2O[C@@H]2C(=O)Nc2ccc(Cl)cc2Cl)cc1 [Compound 26, (2S,3S)—N^2-(4-(benzo[d]thiazol-2-ylcarbamoyl)phenyl)-N^3-(2,4-dichlorophenyl)-N^2-(4-fluorobenzyl)-2,3-epoxybutanediamide]",1.43,
> 0.27,179.2 to 180.1,"O=C(Nc1nc2ccccc2s1)c1ccc(N(Cc2ccc(F)cc2)C(=O)[C@H]2O[C@@H]2C(=O)Nc2ccccc2Br)cc1 [Compound 27, (2S,3S)—N^2-(4-(benzo[d]thiazol-2-ylcarbamoyl)phenyl)-N^3-(2-bromophenyl)-N^2-(4-fluorobenzyl)-2,3-epoxybutanediamide]",0.82,
> 0.27,210.3 to 211.1,"Cc1c(Cl)cccc1NC(=O)[C@H]1O[C@@H]1C(=O)N(Cc1ccc(F)cc1)c1ccc(C(=O)Nc2nc3ccccc3s2)cc1 [Compound 28, (2S,3S)—N^2-(4-(benzo[d]thiazol-2-ylcarbamoyl)phenyl)-N^3-(2-methyl-3-chlorophenyl)-N^2-(4-fluorobenzyl)-2,3-epoxybutanediamide]",0.82,
> 0.82,199.7 to 200.5,"O=C(Nc1nc2ccccc2s1)c1ccc(N(Cc2ccc(F)cc2)C(=O)[C@H]2O[C@@H]2C(=O)Nc2ccc(F)cc2)cc1 [Compound 29, (2S,3S)—N^2-(4-(benzo[d]thiazol-2-ylcarbamoyl)phenyl)-N^3-(4-fluorophenyl)-N^2-(4-fluorobenzyl)-2,3-epoxybutanediamide]",1.43,
0.36,202.4 to 203.1,"O=C(Nc1nc2ccccc2s1)c1ccc(N(Cc2ccc(F)cc2)C(=O)[C@H]2O[C@@H]2C(=O)Nc2cccc(F)c2)cc1 [Compound 30, (2S,3S)—N^2-(4-(benzo[d]thiazol-2-ylcarbamoyl)phenyl)-N^3-(3-fluorophenyl)-N^2-(4-fluorobenzyl)-2,3-epoxybutanediamide]",1.43,3.97
> 0.82,218.2 to 219.1,"O=C(Nc1nc2ccccc2s1)c1ccc(N(Cc2ccc(F)cc2)C(=O)[C@H]2O[C@@H]2C(=O)Nc2ccc(Cl)c(Cl)c2)cc1 [Compound 31, (2S,3S)—N^2-(4-(benzo[d]thiazol-2-ylcarbamoyl)phenyl)-N^3-(3,4-dichlorophenyl)-N^2-(4-fluorobenzyl)-2,3-epoxybutanediamide]",1.43,
> 0.27,216.4 to 217.2,"O=C(Nc1nc2ccccc2s1)c1ccc(N(Cc2ccc(F)cc2)C(=O)[C@H]2O[C@@H]2C(=O)Nc2nccs2)cc1 [Compound 32, (2S,3S)—N^2-(4-(benzo[d]thiazol-2-ylcarbamoyl)phenyl)-N^2-(4-fluorobenzyl)-N^3-(2-thiazolyl)-2,3-epoxybutanediamide]",1.19,
> 0.27,220.5 to 221.6,"CCOC(=O)c1csc(NC(=O)[C@H]2O[C@@H]2C(=O)N(Cc2ccc(F)cc2)c2ccc(C(=O)Nc3nc4ccccc4s3)cc2)n1 [Compound 33, (2S,3S)—N^2-(4-(benzo[d]thiazol-2-ylcarbamoyl)phenyl)-N^2-(4-fluorobenzyl)-N^3-(4-ethoxycarbonylthiazol-2-yl)-2,3-epoxybutanediamide]",1.19,
> 0.82,196.3 to 197.1,"COC(=O)c1csc(NC(=O)[C@H]2O[C@@H]2C(=O)N(Cc2ccc(F)cc2)c2ccc(C(=O)Nc3nc4ccccc4s3)cc2)n1 [Compound 34, (2S,3S)—N^2-(4-(benzo[d]thiazol-2-ylcarbamoyl)phenyl)-N^2-(4-fluorobenzyl)-N^3-(4-methoxycarbonylthiazol-2-yl)-2,3-epoxybutanediamide]",1.43,
> 2.47,218.6 to 219.2,"CCOC(=O)c1cnc(NC(=O)[C@H]2O[C@@H]2C(=O)N(Cc2ccc(F)cc2)c2ccc(C(=O)Nc3nc4ccccc4s3)cc2)s1 [Compound 35, (2S,3S)—N^2-(4-(benzo[d]thiazol-2-ylcarbamoyl)phenyl)-N^2-(4-fluorobenzyl)-N^3-(5-ethoxycarbonylthiazol-2-yl)-2,3-epoxybutanediamide]",4.28,
> 0.82,219.8 to 220.2,"COC(=O)c1cnc(NC(=O)[C@H]2O[C@@H]2C(=O)N(Cc2ccc(F)cc2)c2ccc(C(=O)Nc3nc4ccccc4s3)cc2)s1 [Compound 36, (2S,3S)—N^2-(4-(benzo[d]thiazol-2-ylcarbamoyl)phenyl)-N^2-(4-fluorobenzyl)-N^3-(5-methoxycarbonylthiazol-2-yl)-2,3-epoxybutanediamide]",3.56,
> 0.27,189.2 to 190,"COc1ccccc1NC(=O)[C@H]1O[C@@H]1C(=O)N(Cc1ccc(F)cc1)c1ccc(C(=O)Nc2nc3ccccc3s2)cc1 [Compound 37, (2S,3S)—N^2-(4-(benzo[d]thiazol-2-ylcarbamoyl)phenyl)-N^3-(2-methoxyphenyl)-N^2-(4-fluorobenzyl)-2,3-epoxybutanediamide]",0.82,
